Patent US20120214847A1, “2-[1-PHENYL-5-HYDROXY-4a-SUBSTITUTED-HEXAHYDROCYCLOPENTA[F]INDAZOL-5-YL]ETHYL PHENYL DERIVATIVES AS GLUCOCORTICOID RECEPTOR LIGANDS” (Merck Sharp & Dohme Corp., priority 2009, published 2012)

Biological target: T1, glucocorticoid receptor (Homo sapiens, UniProt P04150)
T1 construct: endogenous in cells; host or cells: HeLa (ATCC) cell lysate supernatant
T1 sequence (P04150 1-777): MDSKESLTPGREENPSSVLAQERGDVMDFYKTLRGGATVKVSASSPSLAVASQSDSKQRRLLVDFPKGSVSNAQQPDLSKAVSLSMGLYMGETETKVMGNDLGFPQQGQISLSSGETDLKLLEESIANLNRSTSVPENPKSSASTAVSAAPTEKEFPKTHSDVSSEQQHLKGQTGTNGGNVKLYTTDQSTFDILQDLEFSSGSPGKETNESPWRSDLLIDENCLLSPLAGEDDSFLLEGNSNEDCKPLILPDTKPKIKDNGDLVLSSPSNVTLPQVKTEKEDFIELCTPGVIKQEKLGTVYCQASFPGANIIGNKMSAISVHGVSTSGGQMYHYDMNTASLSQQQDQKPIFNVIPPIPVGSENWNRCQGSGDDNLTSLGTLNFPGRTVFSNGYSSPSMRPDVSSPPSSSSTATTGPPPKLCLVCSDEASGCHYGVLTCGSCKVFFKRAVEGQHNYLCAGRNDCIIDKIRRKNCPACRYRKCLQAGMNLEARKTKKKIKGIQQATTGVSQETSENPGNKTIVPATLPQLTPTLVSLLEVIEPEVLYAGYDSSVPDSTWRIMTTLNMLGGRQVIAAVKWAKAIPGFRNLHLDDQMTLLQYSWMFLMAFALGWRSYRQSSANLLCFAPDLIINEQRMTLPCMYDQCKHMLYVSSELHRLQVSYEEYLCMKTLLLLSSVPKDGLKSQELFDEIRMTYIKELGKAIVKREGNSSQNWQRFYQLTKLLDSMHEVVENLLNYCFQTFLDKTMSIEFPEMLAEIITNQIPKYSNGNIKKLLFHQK
Experiment: Ligand binding assay (GRBind), 3H-dexamethasone displacement in HeLa cell lysate
Conditions: 3H-DEX tracer
Method: Binding Buffer: TEGM (10 mM Tris-HCl, 1 mM EDTA, 10% glycerol, 1 mM betamecaptoethanol, 10 mM Sodium Molybdate, pH 7.2)
50% HAP Slurry: Calbiochem Hydroxylapatite, Fast Flow, in 10 mM Tris, pH 8.0 and 1 mM EDTA.
Wash Buffer: 40 mM Tris, pH7.5, 100 mM KCl, 1 mM EDTA and 1 mM EGTA. 95% EtOH Dexmethasone-methyl-3H, (DEXA*); (Amersham cat#TRK645) Dexamethasone(DEX) (Sigma, cat#01756):
Hydroxylapatite Fast Flow; Calbiochem Cat#391947
25 Molybdate=Molybdic Acid (Sigma, M1651)
5 Cells (Hall R. E., et al., European Journal of Cancer, 30A: 484-490 (1994)) HeLa (ATCC) cultured in RPMI 1640 (Gibed 11835-055) containing 20 mM Hepes, 4 mM L-glu, 10 ug/ml of human insulin (Sigma, 1-0259), 10% FBS and 20 uglml of Gentamicin (Gibco#15710072) are rinsed twice in PBS. Phenol red-free Trypsin-EDTA is diluted in the same PBS 1:10. The cell layers are rinsed with IX Trypsin, extra Trypsin is poured out, and the cell layers are incubated at 37° C. for 2 min. The flask is tapped and checked for signs of cell detachment. Once the cells begin to slide off the flask, the complete media is added. The cells are counted at this point, then diluted to the appropriate concentration and split into flasks or dishes for further culturing (Usually 1:3 to 1:6 dilution).
Preparation of HeLa Cell Lysate
When the cells are 70 to 85% confluent, they are detached as described above, and collected by centrifuging at 1000 g for 10 min at 4° C. The cell pellet is washed twice with TEGM (10 mM Tris-HCl, 1 mM EDTA, 10% glycerol, 1 mM beta-mercaptoethanol, 10 mM Sodium Molybdate, pH 7.2). After the final wash, the cells are resuspended in TEGM at a concentration of 10^7 cells/mL. The cell suspension is snap frozen in liquid nitrogen or ethanol/dry ice bath and transferred to −80° C. freezer on dry ice. Before setting up the binding assay, the frozen samples are left on ice-water to just thaw. Then the samples are centrifuged at 12,500 g to 20,000 g for 30 min at 4° C. The supernatant is used to set-up assay right away. If using 50 μL of supernatant, the test compound can be prepared in 50 μL of the TEGM buffer.
Procedure for Multiple Compound Screening
1×TEGM buffer is prepared, and the isotope-containing assay mixture is prepared in the following order: EtOH (2% final concentration in reaction), 3H-DEX (Amersham Biosciences) and 1×TEGM. [e.g. For 100 samples, 200 JlL (100×2) of EtOH+4.25 JlL of 1:10 ^3H-Dex stock+2300 μL (100×23) 1×TEGM]. The compound is serially diluted, e.g., if starting final conc. is 1 μM, and the compound is in 25 μL of solution, for duplicate samples, 75 μL of 4×1 μM solution is made and 3 μL of 100). 1M is added to 72 μL of buffer, and 1:5 serial dilution.
25 μL of ^3H-DEX (6 nM) trace and 25 μL, compound solution are first mixed together, followed by addition of 50 μL receptor solution. The reaction is gently mixed, spun briefly at about 200 rpm and incubated at 4° C. overnight. 100 μL of 50% HAP slurry is prepared and added to the incubated reaction which is then vortexed and incubated on ice for 5 to 10 min. The reaction mixture is vortexed twice more to resuspend HAP while incubating reaction. The samples in 96-well format are then washed in wash buffer using the FilterMate™ Universal Harvester plate washer (Packard). The washing process transfers HAP pellet containing ligand-bound expressed receptor to Unifilter-96 GFIB filter plate (Packard). The HAP pellet on the filter plate is incubated with […] of MICROSCINT (Packard) scintillant for 30 min before being counted on the TopCount microscintillation counter (Packard). IC50s are calculated using DEX as a reference.

Ki	SMILES
1.5 nM	NC(=O)[C@H](F)c1c(F)cccc1CC[C@]1(O)CCC2=Cc3c(cnn3-c3ccc(F)cc3)C[C@@]21C1CC1 [Example 57, (2R)-2-(2-{2-[(4aR,5R)-4a-Cyclopropyl-1-(4-fluorophenyl)-5-hydroxy-1,4,4a,5,6,7-hexahydrocyclopenta[f]indazol-5-yl]ethyl}-6-fluorophenyl)-2-fluoroethanamide]
2.45 nM	CC[C@]12Cc3cnn(-c4ccc(F)cc4)c3C=C1CC[C@@]2(O)CCc1ccccc1S(=O)(=O)CC [Example 51, (4aS,5R)-4a-Ethyl-5-{2-[2-(ethylsulfonyl)phenyl]ethyl}-1-(4-fluorophenyl)-1,4,4a,5,6,7-hexahydrocyclopenta[f]indazol-5-ol]
2.7 nM	NC(=O)c1c(C2CC2)ccnc1CC[C@]1(O)CCC2=Cc3c(cnn3-c3ccc(F)cc3)C[C@@]21C1CC1 [Example 49, 4-Cyclopropyl-2-{2-[(4aR,5R)-4a-cyclopropyl-1-(4-fluorophenyl)-5-hydroxy-1,4,4a,5,6,7-hexahydrocyclopenta[f]indazol-5-yl]ethyl}pyridine-3-carboxamide]
2.59 nM	CC[C@]12Cc3cnn(-c4cccnc4)c3C=C1CC[C@@]2(O)CCc1cccc(F)c1C#N [Example 10, 2-{2-[(4aS,5R)-4a-Ethyl-5-hydroxy-1-(pyridin-3-yl)-1,4,4a,5,6,7-hexahydrocyclopenta[f]indazol-5-yl]ethyl}-6-fluorobenzonitrile]
1.98 nM	NC(=O)c1cc(F)cnc1CC[C@]1(O)CCC2=Cc3c(cnn3-c3ccc(F)cc3)C[C@@]21C1CC1 [Example 4, 2-{2-[(4aR,5R)-4a-Cyclopropyl-1-(4-fluorophenyl)-5-hydroxy-1,4,4a,5,6,7-hexahydrocyclopenta[f]indazol-5-yl]ethyl}-5-fluoropyridine-3-carboxamide]
1.58 nM	N#Cc1cccnc1CC[C@]1(O)CCC2=Cc3c(cnn3-c3ccc(F)cc3)C[C@@]21C1CC1 [Example 31, 2-{2-[(4aR,5R)-4a-Cyclopropyl-1-(4-fluorophenyl)-5-hydroxy-1,4,4a,5,6,7-hexahydrocyclopenta[f]indazol-5-yl]ethyl}pyridine-3-carbonitrile]
3.22 nM	NC(=O)c1ccccc1CC[C@]1(O)CCC2=Cc3c(cnn3-c3cccc(F)c3)C[C@@]21C1CC1 [Example 7, 2-{2-[(4aR,5R)-4a-Cyclopropyl-1-(3-fluorophenyl)-5-hydroxy-1,4,4a,5,6,7-hexahydrocyclopenta[f]indazol-5-yl]ethyl}benzamide]
2.09 nM	O=C(NCCO)c1ccccc1CC[C@]1(O)CCC2=Cc3c(cnn3-c3ccc(F)cc3)C[C@@]21C1CC1 [Example 50, 2-{2-[(4aR,5R)-4a-Cyclopropyl-1-(4-fluorophenyl)-5-hydroxy-1,4,4a,5,6,7-hexahydrocyclopenta[f]indazol-5-yl]ethyl}-N-(2-hydroxyethyl)benzamide]
4.6 nM	NC(=O)CNC(=O)c1cc(F)cnc1CC[C@]1(O)CCC2=Cc3c(cnn3-c3ccc(F)cc3)C[C@@]21C1CC1 [Example 44, N-(2-Amino-2-oxoethyl)-2-{2-[(4aR,5R)-4a-cyclopropyl-1-(4-fluorophenyl)-5-hydroxy-1,4,4a,5,6,7-hexahydrocyclopenta[f]indazol-5-yl]ethyl}-5-fluoropyridine-3-carboxamide]
7.06 nM	CC[C@]12Cc3cnn(-c4ccc(F)cc4)c3C=C1CC[C@@]2(O)CC(O)c1ncccc1Cl (stereo partly drawn) [Example 70, (4aS,5R)-5-[2-(3-Chloropyridin-2-yl)-2-hydroxyethyl]-4a-ethyl-1-(4-fluorophenyl)-1,4,4a,5,6,7-hexahydrocyclopenta[f]indazol-5-ol]
9.35 nM	CC[C@]12Cc3cnn(-c4ccc(F)cc4)c3C=C1CC[C@@]2(O)CC(O)c1c(F)ccnc1Cl (stereo partly drawn) [Example 74, (4aS,5R)-5-[2-(2-Chloro-4-fluoropyridin-3-yl)-2-hydroxyethyl]-4a-ethyl-1-(4-fluorophenyl)-1,4,4a,5,6,7-hexahydrocyclopenta[f]indazol-5-ol]
2.29 nM	NC(=O)c1ccccc1CC[C@]1(O)CCC2=Cc3c(cnn3-c3ccccc3)C[C@@]21C1CC1 [Example 29, 2-{2-[(4aR,5R)-4a-Cyclopropyl-5-hydroxy-1-phenyl-1,4,4a,5,6,7-hexahydrocyclopenta[f]indazol-5-yl]ethyl}benzamide]
0.88 nM	CS(=O)(=O)c1ccccc1CC[C@]1(O)CCC2=Cc3c(cnn3-c3ccc(F)cc3)C[C@@]21C1CC1 [Example 58, (4aR,5R)-4a-Cyclopropyl-1-(4-fluorophenyl)-5-{2-[2-(methylsulfonyl)phenyl]ethyl}-1,4,4a,5,6,7-hexahydrocyclopenta[f]indazol-5-ol]
2.02 nM	CC[C@]12Cc3cnn(-c4ccc(F)cc4)c3C=C1CC[C@@]2(O)CCc1cccc(OC)c1C(N)=O [Example 37, 2-{2-[(4aS,5R)-4a-Ethyl-1-(4-fluorophenyl)-5-hydroxy-1,4,4a,5,6,7-hexahydrocyclopenta[f]indazol-5-yl]ethyl}-6-methoxybenzamide]
2.22 nM	CC[C@]12Cc3cnn(-c4ccc(F)cc4)c3C=C1CC[C@@]2(O)CCc1ccccn1 [Example 16, (4aS,5R)-4a-Ethyl-1-(4-fluorophenyl)-5-[2-(pyridin-2-yl)ethyl]-1,4,4a,5,6,7-hexahydrocyclopenta[f]indazol-5-ol]
1.85 nM	CC[C@]12Cc3cnn(-c4cccc(F)c4)c3C=C1CC[C@@]2(O)CCc1cccc(F)c1C(N)=O [Example 12, 2-{2-[(4aS,5R)-4a-Ethyl-1-(3-fluorophenyl)-5-hydroxy-1,4,4a,5,6,7-hexahydrocyclopenta[f]indazol-5-yl]ethyl}-6-fluorobenzamide]
3.82 nM	CC[C@]12Cc3cnn(-c4ccc(F)cc4)c3C=C1CC[C@@]2(O)CCc1ccccc1C(O)C(N)=O (stereo partly drawn) [Example 26, 2-(2-{2-[(4aS,5R)-4a-Ethyl-1-(4-fluorophenyl)-5-hydroxy-1,4,4a,5,6,7-hexahydrocyclopenta[f]indazol-5-yl]ethyl}phenyl)-2-hydroxyacetamide]
1.24 nM	N#Cc1c(F)cccc1CC[C@]1(O)CCC2=Cc3c(cnn3-c3ccccc3)C[C@@]21C1CC1 [Example 28, 2-{2-[(4aR,5R)-4a-Cyclopropyl-5-hydroxy-1-phenyl-1,4,4a,5,6,7-hexahydrocyclopenta[f]indazol-5-yl]ethyl}-6-fluorobenzonitrile]
